Columns and labels:
[1] = biological target: T1, human TRPM8 (Homo sapiens, UniProt Q7Z2W7); assay: In vitro human TRPM8 fluorescence calcium flux assay (recombinant CHO cells, Fluo4-AM, FDSS6000); type: cell-based; conditions: recombinant CHO cells expressing human TRPM8; menthol-related EC50, normalized to 100 μM menthol
T1 construct: expressed in transfected cells; host or cells: CHO (p658 mammalian expression vector)
Procedure: (§1) In Vitro Pig and Human TRPM8 Fluorescence Calcium Flux Assays
(§2) For functional expression of TRPM8, the full-length cDNA encoding human (NM_024080) and pig (XM_001927892.1) TRPM8 sequences were subcloned into p658 and pcDNA5/FRT/TO mammalian expression vectors, respectively. Engineered recombinant CHO cell lines expressing human or pig TRPM8 were generated. Culture media was Ham-F12 with 10% FCS for both lines, and for the pig cell line only 400 μg/ml hygromycin B and 30 μg/mL blasticidin were added as selection antibiotics (all reagents were obtained from Invitrogen, Fisher Scientific). Cells were grown in culture flasks up to 80% confluence where they were harvested using accutase (Sigma, MO, USA) to detach the cells by enzymatic dissociation and either seeded directly into assay plates or cryopreserved for future use.
(§3) For calcium flux assays, cells were plated into clear base poly-D-lysine coated 384-well plates (BD Biosciences, NJ USA) at a density of 15,000 cells per well in appropriate culture medium and grown overnight. The following day, all medium was removed then the cells were incubated with 2 μM of Fluo4-AM Dye (Molecular Probes) prepared in complete HBSS assay buffer containing 20 mM HEPES, 0.1% BSA, and 2.5 mM probenecid at room temperature for one hour. Following incubation, plates were inserted into a FDSS6000 instrument (Hamamatsu, Photonics, Japan) instrument, where cells were challenged with compounds of the formula (at varying concentrations) and intracellular calcium was measured kinetically for 3 min after addition.
(§4) This protocol allowed the determination of an EC50 value, from the sixteen-point dose response data, for each compound of the formula tested. Maximal fluorescence intensity achieved upon addition of 100 μM menthol (stock solution prepared in ethanol from solid, Sigma-Aldrich) was exported from the FDSS and further analyzed using IDBS XLFit 5. Data were normalized to the average 100 μM menthol response (maximum control wells) included in each plate. The dose response curves from the average of wells for each data point were analyzed by using nonlinear regression of sigmoidal dose response (formula 205). Finally, the (menthol-related) EC50 values (Half maximal effective concentration) were calculated with the best-fit dose curve determined by IDBS XLFit 5 software.

[2] = biological target: T2, pig TRPM8 (Sus scrofa, UniProt F1SM15); assay: In vitro pig TRPM8 fluorescence calcium flux assay (recombinant CHO cells, Fluo4-AM, FDSS6000); type: cell-based; conditions: recombinant CHO cells expressing pig TRPM8; menthol-related EC50, normalized to 100 μM menthol
T2 construct: expressed in transfected cells; host or cells: CHO (pcDNA5/FRT/TO vector; hygromycin B and blasticidin selection)
T2 sequence (F1SM15 1-1104): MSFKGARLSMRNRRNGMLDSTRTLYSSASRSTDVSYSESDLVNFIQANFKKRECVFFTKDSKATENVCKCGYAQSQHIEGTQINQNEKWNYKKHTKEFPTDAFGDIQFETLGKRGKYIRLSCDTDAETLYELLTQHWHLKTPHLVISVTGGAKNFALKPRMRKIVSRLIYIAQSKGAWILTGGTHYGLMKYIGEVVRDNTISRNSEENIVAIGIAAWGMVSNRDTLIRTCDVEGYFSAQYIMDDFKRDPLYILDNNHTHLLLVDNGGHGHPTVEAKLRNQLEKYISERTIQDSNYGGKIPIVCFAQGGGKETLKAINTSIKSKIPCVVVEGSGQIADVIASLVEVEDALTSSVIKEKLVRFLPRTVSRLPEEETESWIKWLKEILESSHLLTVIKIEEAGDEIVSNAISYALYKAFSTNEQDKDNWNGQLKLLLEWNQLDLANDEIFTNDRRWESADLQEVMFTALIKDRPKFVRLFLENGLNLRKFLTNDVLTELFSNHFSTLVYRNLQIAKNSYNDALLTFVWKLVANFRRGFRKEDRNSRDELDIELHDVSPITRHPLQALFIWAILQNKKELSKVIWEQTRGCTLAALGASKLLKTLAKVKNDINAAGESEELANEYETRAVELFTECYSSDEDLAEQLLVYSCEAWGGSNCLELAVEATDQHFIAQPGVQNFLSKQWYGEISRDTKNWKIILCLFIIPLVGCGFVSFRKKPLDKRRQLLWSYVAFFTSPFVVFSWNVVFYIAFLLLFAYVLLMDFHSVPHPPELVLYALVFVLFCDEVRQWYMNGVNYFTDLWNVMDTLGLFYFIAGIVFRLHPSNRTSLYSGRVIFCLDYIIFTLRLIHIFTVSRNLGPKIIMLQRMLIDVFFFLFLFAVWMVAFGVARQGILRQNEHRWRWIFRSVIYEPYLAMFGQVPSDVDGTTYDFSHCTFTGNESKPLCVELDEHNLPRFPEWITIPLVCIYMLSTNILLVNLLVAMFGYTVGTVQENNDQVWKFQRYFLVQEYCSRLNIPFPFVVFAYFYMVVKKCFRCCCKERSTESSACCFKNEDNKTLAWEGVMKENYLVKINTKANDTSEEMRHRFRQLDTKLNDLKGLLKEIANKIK
Procedure: as §1, §2, §3, §4

T1 sequence (Q7Z2W7 whole entry): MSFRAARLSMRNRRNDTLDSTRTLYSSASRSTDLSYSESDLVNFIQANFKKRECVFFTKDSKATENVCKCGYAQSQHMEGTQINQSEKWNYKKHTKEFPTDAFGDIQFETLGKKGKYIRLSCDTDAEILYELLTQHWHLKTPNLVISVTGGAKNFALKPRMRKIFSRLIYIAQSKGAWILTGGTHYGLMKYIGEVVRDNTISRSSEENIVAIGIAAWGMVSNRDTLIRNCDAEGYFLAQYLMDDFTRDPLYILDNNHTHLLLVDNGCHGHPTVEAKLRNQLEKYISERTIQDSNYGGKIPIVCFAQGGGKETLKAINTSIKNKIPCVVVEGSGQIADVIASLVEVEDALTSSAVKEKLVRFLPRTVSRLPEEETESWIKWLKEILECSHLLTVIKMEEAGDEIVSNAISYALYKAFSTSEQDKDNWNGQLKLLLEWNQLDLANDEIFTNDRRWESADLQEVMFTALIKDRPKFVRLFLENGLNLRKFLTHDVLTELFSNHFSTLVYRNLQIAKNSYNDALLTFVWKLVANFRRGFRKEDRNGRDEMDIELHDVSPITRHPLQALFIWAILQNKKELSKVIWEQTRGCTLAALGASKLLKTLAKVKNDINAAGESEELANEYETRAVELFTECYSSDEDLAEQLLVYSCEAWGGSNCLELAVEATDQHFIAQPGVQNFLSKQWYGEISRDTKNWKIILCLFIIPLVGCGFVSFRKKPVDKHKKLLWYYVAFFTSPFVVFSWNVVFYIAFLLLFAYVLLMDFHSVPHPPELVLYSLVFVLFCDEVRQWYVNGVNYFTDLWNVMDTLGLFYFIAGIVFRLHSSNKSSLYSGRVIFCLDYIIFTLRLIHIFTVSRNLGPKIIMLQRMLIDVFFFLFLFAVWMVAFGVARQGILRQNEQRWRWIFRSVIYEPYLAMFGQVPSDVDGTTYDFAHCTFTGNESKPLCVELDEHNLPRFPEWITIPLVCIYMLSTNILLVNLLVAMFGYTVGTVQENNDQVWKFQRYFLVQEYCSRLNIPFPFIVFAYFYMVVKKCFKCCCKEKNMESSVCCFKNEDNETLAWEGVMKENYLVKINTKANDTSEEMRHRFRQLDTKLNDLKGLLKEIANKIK

EC50 [1] [nM]	EC50 [2] [nM]	Structure (SMILES)
18.7	4.9	COc1ccc(C(=O)CNC(=O)[C@]2(O)C[C@H](C)CC[C@H]2C(C)C)cc1 [Example 121, (1S,2S,5R)-1-hydroxy-2-isopropyl-N-[2-(4-methoxyphenyl)-2-oxo-ethyl]-5-methyl-cyclohexanecarboxamide]
9.7	19	CC(C)[C@@H]1CC[C@@H](C)C[C@@]1(O)C(=O)NCCc1cc(O)ccc1Br [Example 172, (1S,2S,5R)-N-[2-(2-bromo-5-hydroxy-phenyl)ethyl]-1-hydroxy-2-isopropyl-5-methyl-cyclohexanecarboxamide]
332	486	CC(C)[C@@H]1CC[C@@H](C)C[C@@]1(O)C(=O)NCC(O)(c1ccccc1)C(F)(F)F (single isomer, unassigned) [Example 82]
43.5	7.1	Cc1ccc(CCNC(=O)[C@]2(O)C[C@H](C)CC[C@H]2C(C)C)cc1 [Example 60, (1S,2S,5R)-1-hydroxy-2-isopropyl-5-methyl-N-(4-methylphenethyl)cyclohexane-1-carboxamide]
11.1	29.2	CC(C)[C@@H]1CC[C@@H](C)C[C@@]1(O)C(=O)NCC1OCCc2ccccc21 (single isomer, unassigned) [Example 97]
1.1	0.6	CC(C)[C@@H]1CC[C@@H](C)C[C@@]1(O)C(=O)NCC(=O)c1cccc(O)c1O [Example 104, (1S,2S,5R)—N-(2-(2,3-dihydroxyphenyl)-2-oxoethyl)-1-hydroxy-2-isopropyl-5-methylcyclohexane-1-carboxamide]
140	72.2	CC(C)[C@@H]1CC[C@@H](C)C[C@@]1(O)C(=O)NCCc1cccc(S(N)(=O)=O)c1 [Example 133, (1S,2S,5R)-1-hydroxy-2-isopropyl-5-methyl-N-[2-(3-sulfamoylphenyl)ethyl]cyclohexanecarboxamide]
52.8	64.7	CC(C)[C@@H]1CC[C@@H](C)C[C@@]1(O)C(=O)NCC1OCCc2ccccc21 (single isomer, unassigned) [Example 98]
359	152	Cc1cccnc1CCNC(=O)[C@]1(O)C[C@H](C)CC[C@H]1C(C)C [Example 127, (1S,2S,5R)-1-hydroxy-2-isopropyl-5-methyl-N-[2-(3-methyl-2-pyridyl)ethyl]cyclohexanecarboxamide]
1160	901	CC(C)[C@@H]1CC[C@@H](C)C[C@@]1(O)C(=O)NC1CCC(F)(F)CC1 [Example 147, (1S,2S,5R)-N-(4,4-difluorocyclohexyl)-1-hydroxy-2-isopropyl-5-methyl-cyclohexanecarboxamide]
24.6	21.7	CC(C)[C@@H]1CC[C@@H](C)C[C@@]1(O)C(=O)NCCc1ccc(O)cc1O [Example 173, (1S,2S,5R)-N-[2-(2,4-dihydroxyphenyl)ethyl]-1-hydroxy-2-isopropyl-5-methyl-cyclohexanecarboxamide]
6.2	4.3	Cc1ccccc1CCNC(=O)[C@]1(O)C[C@H](C)CC[C@H]1C(C)C [Example 59, (1S,2S,5R)-1-hydroxy-2-isopropyl-5-methyl-N-(2-methylphenethyl)cyclohexane-1-carboxamide]
757	242	CC(C)[C@@H]1CC[C@@H](C)C[C@@]1(O)C(=O)NCC1OC(=O)c2ccccc21 (mixture of isomers) [Example 18, (1S,2S,5R)-1-hydroxy-2-isopropyl-5-methyl-N-(((1RS)-3-oxo-1,3-dihydroisobenzofuran-1-yl)methyl) cyclohexane-1-carboxamide]
3.6	3.1	CC(C)[C@@H]1CC[C@@H](C)C[C@@]1(O)C(=O)N[C@H]1COc2ccccc2C1 [Example 95, (1S,2S,5R)—N-((3R)-chroman-3-yl)-1-hydroxy-2-isopropyl-5-methylcyclohexane-1-carboxamide]
188	126	CC(C)[C@@H]1CC[C@@H](C)C[C@@]1(O)C(=O)NCc1c[nH]c2ccccc12 [Example 151]
1580	892	CC(C)[C@@H]1CC[C@@H](C)C[C@@]1(O)C(=O)NC1CCOC1=O (stereo partly drawn) [Example 112, (1S,2S,5R)-1-hydroxy-2-isopropyl-5-methyl-N-(2-oxotetrahydrofuran-3-yl)cyclohexane-1-carboxamide]
1510	713	CC(C)[C@@H]1CC[C@@H](C)C[C@@]1(O)C(=O)NCCc1nc2ccccc2[nH]1 [Example 8, (1S,2S,5R)—N-(2-(1H-benzo[d]imidazol-2-yl)ethyl)-1-hydroxy-2-isopropyl-5-methylcyclohexane-1-carboxamide 2-hydroxypropane-1,2,3-tricarboxylate]
330	369	CC(C)[C@@H]1CC[C@@H](C)C[C@@]1(O)C(=O)NCc1cccc(O)c1 [Example 165, (1S,2S,5R)-1-hydroxy-N-[(3-hydroxyphenyl)methyl]-2-isopropyl-5-methyl-cyclohexanecarboxamide]
211	221	Cc1oc(=O)oc1COC(=O)c1cccc(CCNC(=O)[C@]2(O)C[C@H](C)CC[C@H]2C(C)C)c1 [Example 29, (5-methyl-2-oxo-1,3-dioxol-4-yl)methyl 3-(2-((1S,2S,5R)-1-hydroxy-2-isopropyl-5-methylcyclohexane-1-carboxamido)ethy) benzoate]
334	229	COc1cc(CCNC(=O)[C@]2(O)C[C@H](C)CC[C@H]2C(C)C)cc(OC)c1 [Example 123, (1S,2S,5R)-N-[2-(3,5-dimethoxyphenyl)ethyl]-1-hydroxy-2-isopropyl-5-methyl-cyclohexanecarboxamide]
143	141	CC(=O)NCCOc1ccccc1CCNC(=O)[C@]1(O)C[C@H](C)CC[C@H]1C(C)C [Example 84, (1S,2S,5R)—N-(2-(2-acetamidoethoxy)phenethyl)-1-hydroxy-2-isopropyl-5-methylcyclohexane-1-carboxamide]
18.8	14.9	CC(C)[C@@H]1CC[C@@H](C)C[C@@]1(O)C(=O)NCC1CCOc2ccccc21 (stereo partly drawn) [Example 103, (1S,2S,5R)—N-(chroman-4-ylmethyl)-1-hydroxy-2-isopropyl-5-methylcyclohexane-1-carboxamide]
11.9	4.6	Cc1cccc([C@H](O)CNC(=O)[C@]2(O)C[C@H](C)CC[C@H]2C(C)C)c1 [Example 46, (1S,2S,5R)-1-hydroxy-N-((2S)-hydroxy-2-(m-tolyl)ethyl)-2-isopropyl-5-methylcyclohexane-1-carboxamide]
59.8	28.2	COc1cc(CCNC(=O)[C@]2(O)C[C@H](C)CC[C@H]2C(C)C)ccc1O [Example 114, (1S,2S,5R)-1-hydroxy-N-[2-(4-hydroxy-3-methoxy-phenyl)ethyl]-2-isopropyl-5-methyl-cyclohexanecarboxamide]
376	174	CC(C)[C@@H]1CC[C@@H](C)C[C@@]1(O)C(=O)NCC1(c2cccc(COC3CCCCO3)c2)COC1 (stereo partly drawn) [Example 101, (1S,2S,5R)-1-hydroxy-2-isopropyl-5-methyl-N-((3-(3-(((tetrahydro-2H-pyran-2-yl)oxy)methyl)phenyl)oxetan-3-yl)methyl)cyclohexane-1-carboxamide]
3.8	1.7	CC(C)[C@@H]1CC[C@@H](C)C[C@@]1(O)C(=O)NCC(=O)c1cc(F)cc(F)c1 [Example 138, (1S,2S,5R)-N-[2-(3,5-difluorophenyl)-2-oxo-ethyl]-1-hydroxy-2-isopropyl-5-methyl-cyclohexanecarboxamide]
1260	358	CC(C)[C@@H]1CC[C@@H](C)C[C@@]1(O)C(=O)NC[C@H](O)c1ccccc1 [Example 178, (1S,2S,5R)-1-hydroxy-N-((2R)-2-hydroxy-2-phenylethyl)-2-isopropyl-5-methylcyclohexane-1-carboxamide]
37.1	60.3	CC(C)[C@@H]1CC[C@@H](C)C[C@@]1(O)C(=O)N[C@@H](CO)Cc1ccc(O)cc1 [Example 170, (1S,2S,5R)-1-hydroxy-N-[(1R)-1-(hydroxymethyl)-2-(4-hydroxyphenyl)ethyl]-2-isopropyl-5-methyl-cyclohexanecarboxamide]

Reference: patent US20240124408A1 (Sanofi, priority 2020, published 2024)
